Target: T1, PMN LTB4 receptor (Homo sapiens, UniProt Q15722)
T1 construct: endogenous in cells; host or cells: neutrophils (PMN) isolated from heparinized blood by ficoll gradient and dextran sedimentation
Experiment: LTB4 Human Neutrophil (PMN) Binding Assay
Conditions: read-out: Ki, affinity for LTB4 (receptor)
Excerpt: LTB4 Human Neutrophil (PMN) Binding Assay
LTB4 for the PMN LTB4 receptor.

T1 sequence (Q15722 whole entry): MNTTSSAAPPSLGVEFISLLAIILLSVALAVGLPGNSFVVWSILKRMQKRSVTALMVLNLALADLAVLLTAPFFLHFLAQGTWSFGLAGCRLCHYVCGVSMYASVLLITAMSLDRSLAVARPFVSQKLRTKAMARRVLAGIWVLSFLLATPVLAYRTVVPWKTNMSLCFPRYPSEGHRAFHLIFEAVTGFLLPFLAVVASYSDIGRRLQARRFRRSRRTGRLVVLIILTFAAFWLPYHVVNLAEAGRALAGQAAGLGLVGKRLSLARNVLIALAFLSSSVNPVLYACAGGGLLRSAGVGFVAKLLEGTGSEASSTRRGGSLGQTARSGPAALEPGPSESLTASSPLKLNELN

Ki [nM]	Compound
52	O=C(CCCCCOc1cc(-c2ccc3c(c2)OCO3)cc(-c2ccccc2)n1)NC(Cc1ccc(OCCCNC(=O)c2ccc(N/N=C/c3ccccc3S(=O)(=O)O)nc2)cc1)C(=O)O (stereo not drawn) [Reagent IV]
8	CCc1cc(-c2ccc(F)cc2)c(O)cc1OCCCCC(C)(C)CNC(=O)c1ccc(N/N=C/c2ccccc2)nc1 [IIa]
41	O=C(CCCCCOc1cc(-c2ccc3c(c2)OCO3)cc(-c2ccccc2)n1)NC(Cc1ccc(O)cc1)C(=O)O (stereo not drawn) [Compound III]
